The test system of test [1] is P-gp. Description: native mass spectrometry of P-gp with CsA, nucleotides and lipid (Example 2). As to conditions: for number of nucleotides bound to P-gp: 1 mM MgCl2 plus 50 μM ATP or ATPγS, FIG. 2c. Format: binding. Here is the method:
His-tagged P-glycoprotein was expressed in P.pastoris and purified according to a protocol described previously (see Aller et al, supra). Lipids were purchased from Avanti Polar Lipids.
Before analysis, P-gp was buffer exchanged into 200 mM ammonium acetate pH 7 supplemented with 0.02% n-dodecyl-β-D-maltoside (DDM), using micro BioSpin-6 devices (Bio-Rad). Lipids were first prepared at 2 mM in chloroform and then diluted to 20 μM in 200 mM ammonium acetate pH 7 supplemented with 0.02% DDM. Cyclosporin was first dissolved at 8 mM in methanol and then diluted to 5-100 μM in 200 mM ammonium acetate pH 7 supplemented with 0.02% DDM. MS spectra were acquired on a Q-TOF2 (Micromass) modified for the transmission and detection of high mass complexes. Samples were introduced in the ion-source via gold-coated nanoflow capillaries. […] Micelle transmission was enhanced by increasing the Pirani pressure to 30 mbar. […] Spectra were analysed with Massign software.

The subject of test [2] is mouse P-gp. Description: nanoelectrospray MS / IM-MS of P-gp pre-incubated with drug compounds (Example 1). Particulars: 2-3 mg/ml P-gp pre-incubated with 1-10 molar equivalents of test compound; FIG. 1. Format: binding. Here is the method: P-glycoprotein (P-gp) was expressed and purified as reported previously (Aller et al, Science, 2009, 323, 1718-1722). In this method, P-gp was expressed in P. pastoris strain and purified as a his-tagged protein from the membranes solubilised with Triton X-100. Buffer was exchanged by washing with buffer containing 20 mM imidazole, 0.04% sodium cholate and 0.0675% β-DDM. The protein was concentrated, subjected to gel filtration chromatography and assayed for purity by SDS-PAGE.
An aliquot (30 μl) of mouse P-gp solution (9 mg/ml) in 0.07% β-DDM, 0.04% sodium cholate, 100 mM NaCl, 0.2 mM TCEP, 20 mM Hepes, pH 7.5 was buffer-exchanged using a membrane filter and diluted 3-fold in 300 mM ammonium acetate, pH 7.5. Spectra of P-gp with drug compounds were obtained by first pre-incubating 2-3 mg/ml P-gp protein with 1-10 molar equivalents of the test compound for 15 minutes to overnight prior to nanoelectrospray ionisation mass spectrometry.
Mass spectrometry measurements were carried out on a Synapt HDMS (Waters, Manchester, UK) quadrupole-S2 ion-trap-IM-MS instrument modified for transmission and detection of ions at high m/z ratios. Aliquots of complex-containing solutions (2 μL) in detergent were introduced via gold-coated nanoflow electrospray capillaries. […]

Consider 4 compounds from US9536718B2, “Detection of membrane protein-therapeutic agent complexes by mass spectrometry” (Oxford University Innovation Limited, priority 2011, dated 2017).

For the compound cardiolipin 14:1(3)-15:1, in test [1] (first incubated with ATP or ATPγS, then with cardiolipin or CsA, FIG. 3a, b), the “number of molecules bound to P-gp already bound to one ATP or ATPγS” value is listed as “one or two”.
Regarding `Nc1ncnc2c1ncn2[C@@H]1O[C@H](COP(=O)(O)OP(=O)(O)OP(=O)(O)O)[C@@H](O)[C@H]1O` [ATP, adenosine triphosphate], in test [1], the “number of nucleotides bound to P-gp” value is given as “one or two”.
Consider `CC(C)[C@H]1NC(=O)c2c[se]c(n2)[C@@H](C(C)C)NC(=O)c2c[se]c(n2)[C@@H](C(C)C)NC(=O)c2c[se]c1n2` [QZ59Se, RRR], for which, in test [2], the “effect of drug binding on the mass spectrum of P-gp” value was “altered the mass spectrum of the membrane protein”.
Turning to `Nc1ncnc2c1ncn2[C@@H]1O[C@H](COP(=O)(O)OP(=O)(O)OP(O)(O)=S)[C@@H](O)[C@H]1O` [ATPγS], the “number of nucleotides bound to P-gp” value in test [1] is “one or two”.
